{"source": "patent US12679855B2", "about": "“Inhibitors of the enzyme enolase for precision oncology” (Board of Regents, The University of Texas System, priority 2019, dated 2026)", "key": {"[1]": {"test_system": "D502 glioma cell line (ENO1-heterozygously deleted)", "assay": "Enolase inhibitor sensitivity (crystal violet), ENO1-heterozygously deleted D502 cells", "format": "cell-based", "conditions": "DMEM 10% FBS, terminal cell density by crystal violet after 7 days", "protocol": "(§1) Enolase inhibitor sensitivity experiments were performed, using DMEM containing 10% FBS cell culture media. IC50 (expressed in nM) were calculated based on terminal cell density measured by crystal violet after 7 days of growth. […] Left table: POMHEX. Middle table: HEX. Right table: Ratio of sensitivity to POMHEX versus HEX for each cell line.\n(§2) (FIG. 19A) ENO1-deleted (D423, red), ENO1-isogenically rescued (D423 ENO1, blue), and ENO1-WT (LN319, grey) cells were treated POMHEX in RPMI media under the same experimental conditions used for NCI-60 screening. […] IC50 (expressed in nM) were calculated based on terminal cell density measured by crystal violet.\n(§3) Cell proliferation assay."}, "[2]": {"test_system": "U343 glioma cell line (ENO1-heterozygously deleted)", "assay": "Enolase inhibitor sensitivity (crystal violet), ENO1-heterozygously deleted U343 cells", "format": "cell-based", "conditions": "DMEM 10% FBS, terminal cell density by crystal violet after 7 days", "protocol": "as §1, §2, §3"}, "[3]": {"test_system": "glioma cell lines with different ENO1-deletion status", "assay": "Enolase inhibitor sensitivity across glioma cell lines", "format": "cell-based", "protocol": "as §1, §2"}, "[4]": {"assay": "Human plasma stability assay (31P NMR)", "format": "in vitro ADME", "protocol": "VCY17 (left) and POMHEX (right) were prepared at 1.5 mM and added to human plasma in an NMR tube with 10% D2O for signal lock. […] As expected, emergence of the second peak after 1 h is due to hydrolysis of the acetyl-protected hydroxamate; the nitroimidazole moiety remains attached (mono-ester phosphonates always show ^31P-chemical shifts <20 ppm); intact phosphoramidate mixed ester was verified by ^31P-^1H HSQC showing resonance with protons at ~5 ppm (—CH2—O—P) and 4 ppm (—CH2—NH—P). Note that VCY17 and de-acetylated VCY17 can come out as doublets: this is because two chiral centers (Phosphorus and C1) yield cis/trans diasteromers.\nVCY13 (FIG. 20A) and VCY31 (FIG. 20B) are thioesterase-labile phosphonoamidates. ENO1-deleted (D423, red), ENO1-isogenically rescued (D423 ENO1, blue), and ENO1-WT (LN319, grey) cells were treated with either VCY13 or VCY31 for 5 days. […] (FIG. 20B) VCY31 is a structurally similar pro-drug that uses 2-picolylamine, rather than benzylamine, as a second pro-drug leave group. […] 4 mM VCY31 was dissolved in 80% human plasma, 20% D2O and monitored by ^31P NMR (121 MHz) for 15 hours. Intact VCY31 has a ^31P NMR shift of 33 ppm. Hydrolysis of the thioester begins to occur after 2 hours, as indicated by the emergence of a peak at ~16 ppm.\nHuman plasma stability assay. POMHEX and VCY17 (1.5 mM) were added to human plasma (Sigma #P9523) in an NMR tube with 10% D2O for signal lock. ^31P NMR measurements (31P CPD, 1000 transients) were conducted every 30 minutes on the first day and every 24 hours, for 4 days afterwards."}, "[5]": {"assay": "Ex-vivo stability in human blood", "format": "in vitro ADME", "protocol": "FIGS. 3A-3D show the ex-vivo half-life of POMHEX in biological fluids may limit its clinical utility. (FIG. 3A) Ex-vivo half-life of POMHEX in biological fluids. POMHEX has a half-life of ~30 seconds in mouse plasma. The degradation may be prevented by heat inactivation or de-proteinatization with acetonitrile. […] (FIG. 3B) Plasma concentration of HEX and HemiPOMHEX following a single intravenous injection of POMHEX, as a function of time. Mice were injected IV with 10 mg/kg POMHEX and sacrificed at the indicated time points. Each data point represents a single animal. Note, POMHEX itself was below the detection limit (100 nM) even at the earliest time point. It is believed that this may not be reflective of the physiological state as separation of plasma from hematocrit is required for the measurements, which adds approximately 6 minutes of processing time during which POMHEX may be degraded to HemiPOMHEX. […] (FIG. 3D) Quantification of POMHEX and its metabolites in mouse organs 24 hrs. after a single intravenous injection of 10 mg/kg POMHEX.\nFIGS. 16A-16C show the ex-vivo half-life of POMHEX in biological fluids limits its clinical utility. […] HEX and HemiPOMHEX were not measured at concentrations higher than 10 mg/kg due to the hazards associated with the derivatization agent, trimethylsilyl-diazomethane in hexane (TMS-DAM). […]"}, "[6]": {"assay": "Plasma and organ levels after injection of POMHEX in mice", "format": "in vivo, mouse", "protocol": "FIGS. 3A-3D show the ex-vivo half-life of POMHEX in biological fluids may limit its clinical utility. (FIG. 3A) Ex-vivo half-life of POMHEX in biological fluids. POMHEX has a half-life of ~30 seconds in mouse plasma. The degradation may be prevented by heat inactivation or de-proteinatization with acetonitrile. […] (FIG. 3B) Plasma concentration of HEX and HemiPOMHEX following a single intravenous injection of POMHEX, as a function of time. Mice were injected IV with 10 mg/kg POMHEX and sacrificed at the indicated time points. Each data point represents a single animal. Note, POMHEX itself was below the detection limit (100 nM) even at the earliest time point. It is believed that this may not be reflective of the physiological state as separation of plasma from hematocrit is required for the measurements, which adds approximately 6 minutes of processing time during which POMHEX may be degraded to HemiPOMHEX. (FIG. 3C) The results of the same experiment but performed with an intraperitoneal injection of POMHEX, at a dose of 40 mg/kg. (FIG. 3D) Quantification of POMHEX and its metabolites in mouse organs 24 hrs. after a single intravenous injection of 10 mg/kg POMHEX.\nFIGS. 16A-16C show the ex-vivo half-life of POMHEX in biological fluids limits its clinical utility. […] Lower levels of carboxylesterase in human blood results in a longer half-life of POMHEX. (FIG. 16B) Dramatically higher drug exposure in non-human primates as compared to mice following IV injections of POMHEX. Mice (n=3; pooled) and monkeys (n=3; pooled) were injected IV with POMHEX at 10 mg/kg and 2.5 mg/kg, respectively. […] POMHEX was undetectable (<50 nM) even at the earliest time point, in both monkey and mouse experiments; at 98 nM, POMHEX was detectable 1-minute post-injection, but at no time thereafter. […] HEX and HemiPOMHEX were not measured at concentrations higher than 10 mg/kg due to the hazards associated with the derivatization agent, trimethylsilyl-diazomethane in hexane (TMS-DAM). (FIG. 16C) Schematic of POMHEX in circulation when administered IP or IV in mice. […]"}, "[7]": {"assay": "Plasma levels after IV injection of POMHEX in monkeys", "format": "in vivo, monkey", "protocol": "FIGS. 16A-16C show the ex-vivo half-life of POMHEX in biological fluids limits its clinical utility. […] Lower levels of carboxylesterase in human blood results in a longer half-life of POMHEX. (FIG. 16B) Dramatically higher drug exposure in non-human primates as compared to mice following IV injections of POMHEX. Mice (n=3; pooled) and monkeys (n=3; pooled) were injected IV with POMHEX at 10 mg/kg and 2.5 mg/kg, respectively. […] POMHEX was undetectable (<50 nM) even at the earliest time point, in both monkey and mouse experiments; at 98 nM, POMHEX was detectable 1-minute post-injection, but at no time thereafter. […] HEX and HemiPOMHEX were not measured at concentrations higher than 10 mg/kg due to the hazards associated with the derivatization agent, trimethylsilyl-diazomethane in hexane (TMS-DAM). (FIG. 16C) Schematic of POMHEX in circulation when administered IP or IV in mice. Due to high levels of plasma carboxylesterase, a gradient decrease in POMHEX away from the site of injection is accompanied by a concurrent increase in HemiPOMHEX."}, "[8]": {"test_system": "D423 (ENO1-deleted) glioma cells", "assay": "Cell proliferation assay (crystal violet) in ENO1-deleted glioma cells", "format": "cell-based", "conditions": "4 days"}}, "note": "Values joined by “and” are separate entries in the source; they are usually repeats but may differ in a detail not shown here. Equal entries are not always repeated. Where two headings read alike, the source gives them in different places.", "data": [{"smiles": "CC(C)(C)C(=O)OCOP(=O)(OCOC(=O)C(C)(C)C)C1CCCN(O)C1=O", "note": "(stereo not shown) [POMHEX]", "values": [{"measurement": "IC50", "setting": "[1]", "result": 82, "unit": "nM"}, {"measurement": "IC50", "setting": "[2]", "result": 559, "unit": "nM"}, {"measurement": "specificity towards ENO1-heterozygous deleted cells compared to normal tissue", "setting": "[3]", "result": 10, "unit": "fold"}, {"measurement": "sensitivity greater in RPMI as compared to DMEM media", "setting": "[3]; D423, D423 ENO1, LN319 cells, NCI-60 screening conditions", "result": "~ 3 fold"}, {"measurement": "potency of POMHEX greater than HEX, on average", "setting": "[3]; average across glioma cell lines", "result": "~ 75 fold"}, {"measurement": "time of hydrolysis to HemiPOMHEX in human plasma", "setting": "[4]; 1.5 mM, human plasma with 10% D2O, 31P NMR", "result": "less than 1 h"}, {"measurement": "longevity of intact POMHEX", "setting": "[4]; FIG. 15", "result": 2, "unit": "h"}, {"measurement": "stability in human blood relative to mouse plasma", "setting": "[5]", "result": "at least 20 times"}, {"measurement": "level in mouse organs", "setting": "[6]; 24 hrs. after a single intravenous injection of 10 mg/kg POMHEX", "result": "below the quantification limit (BQL)"}, {"measurement": "plasma concentration of POMHEX, mice", "setting": "[6]; IV 10 mg/kg, even at the earliest time point, 10 mg/kg", "result": "< 100 nM and < 50 nM"}, {"measurement": "plasma concentration of POMHEX 1-minute post-injection", "setting": "[7]; 1-minute post-injection, species not stated", "result": 98, "unit": "nM"}, {"measurement": "potentially higher toxicity in monkey", "setting": "[7]; IV 2.5 mg/kg", "result": "did not materialize"}, {"measurement": "plasma concentration of POMHEX, monkeys", "setting": "[7]; IV 2.5 mg/kg, even at the earliest time point", "result": "< 50", "unit": "nM"}, {"measurement": "IC50", "setting": "[8]; 1% O2, read-out: IC50 for D423 ENO1-homozygously deleted glioma cells under 1% O2 hypoxia", "result": "~90 nM and 84 nM"}, {"measurement": "potency decrease under 1% O2", "setting": "[8]; 1% O2 versus 21% O2", "result": "~ 2.5 fold"}, {"measurement": "IC50", "setting": "[8]; normoxia (21% O2), read-out: IC50 for D423 ENO1-homozygously deleted glioma cells under normoxia", "result": "~40 nM and 31 nM"}]}]}
